From patent US20240067632A1, “WEE1 Degrading Compounds and Uses Thereof” (Bristol-Myers Squibb Company, priority 2022, published 2024)
Where two headings read alike, the source gives them in different places.

Assays:
WEE1 = biological target: T1, WEE1 (Homo sapiens, UniProt P30291+Q96SW2); test: WEE1-ePL degradation assay (LentiX-WEE1-ePL-GSPT1-ND cells, InCELL Hunter luminescence, 4 h); type: cell-based; details: 293T-LentiX WEE1-ePL cells; for DC50: read-out: 293T-LentiX WEE1-ePL Degradation 4 hr (EC50)
T1 construct: C-terminal ePL-tagged (DiscoverX, Fremont, CA) full-length WEE1 expression construct; expressed in transfected cells; host or cells: LentiX-HEK293T (Invitrogen), lentiviral transduction; co-expressing GSPT1-GN (G576N, lacking the first 158 amino acids)
How it was run: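 First, compounds were pre-plated as 10-point, 3-fold dilutions (top 1 uM or 10 uM) with DMSO control; next, WEE1-ePL-expressing HEK293T cells were added and held 4 h at 37 °C; finally, InCELL Hunter reagent was applied for 30 min before luminescence reading. A 4PL fit gave EC50 and Ymin.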

MKN45 cells = test: MKN45 cell proliferation assay (Cell-Titer-Glo, 120 h); type: cell-based; details: for EC50: Homo sapiens, MKN-45, 120 h, Cell-Titer-Glo, read-out: MKN45 Cell Prolif. 120 hr (EC50); for MKN45 Cell Prolif. 120 hr (Ymin-Obs): minimal percent of DMSO control observed in the concentrations tested
How it was run: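 Growth inhibition was read as blank-corrected Cell-Titer-Glo luminescence expressed as percent DMSO control after 120 h at 37 C, 400 cells/well. Compounds tested in triplicate as 10-point half-log series from 1 or 10 uM, 0.1% DMSO; four-parameter fit gave EC50, and lowest observed percent control was reported as Ymin-obs.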

[1] = lower limit of the fit (0 = luciferase inhibitor, Ymax = DMSO control)

SMILES	293T-LentiX WEE1-ePL Degradation 4 hr (Ymin) (WEE1; [1])	DC50 (WEE1) [nM]	EC50 (MKN45 cells; growth inhibition) [nM]	MKN45 Cell Prolif. 120 hr (Ymin-Obs) (MKN45 cells)	293T-LentiX WEE1-ePL Degradation 4 hr (Ymin) (WEE1; lower limit of the fit (Ymin=0 luciferase inhibitor, Ymax DMSO control))	EC50 (MKN45 cells) [nM]
O=C1CCC(N2Cc3cc(O[C@H]4CCN(Cc5ccc6nc(N7CCOCC7=O)ccc6c5)C4)ccc3C2=O)C(=O)N1 (stereo partly drawn) [3-(1-oxo-5-{[(3S)-1-{[2-(3-oxomorpholin-4-yl)quinolin-6-yl]methyl}pyrrolidin-3-yl]oxy}-2,3-dihydro-1H-isoindol-2-yl)piperidine-2,6-dione]	32	2.43	2.91	6.88		
CC#Cc1ncc2cc(CN3CC[C@H](Oc4ccc5c(c4)CN(C4CCC(=O)NC4=O)C5=O)C3)ccc2n1 (stereo partly drawn) [3-(1-oxo-5-{[(3S)-1-{[2-(prop-1-yn-1-yl)quinazolin-6-yl]methyl}pyrrolidin-3-yl]oxy}-2,3-dihydro-1H-isoindol-2-yl)piperidine-2,6-dione]	29	38.9	51.6	8.56		
CC#Cc1ccc2cc(CN3CC[C@H](Oc4ccc5c(c4)CN(C4CCC(=O)NC4=O)C5=O)C3)ccc2n1 (stereo partly drawn) [3-(1-oxo-5-{[(3S)-1-{[2-(prop-1-yn-1-yl)quinolin-6-yl]methyl}pyrrolidin-3-yl]oxy}-2,3-dihydro-1H-isoindol-2-yl)piperidine-2,6-dione]	29.33	3.18	2.02	8.03		
O=C1CCC(N2Cc3cc(O[C@H]4CCN(Cc5ccc6nc(Oc7ccccn7)ccc6c5)C4)ccc3C2=O)C(=O)N1 (stereo partly drawn) [3-(1-oxo-5-{[(3S)-1-{[2-(pyridin-2-yloxy)quinolin-6-yl]methyl}pyrrolidin-3-yl]oxy}-2,3-dihydro-1H-isoindol-2-yl)piperidine-2,6-dione]	35	6.39	2.88	7.62		
O=C1CCC(N2Cc3cc(O[C@H]4CCN(Cc5ccc6nc(N7CCCC7)ccc6c5)C4)ccc3C2=O)C(=O)N1 (stereo partly drawn) [3-(1-oxo-5-{[(3S)-1-{[2-(pyrrolidin-1-yl)quinolin-6-yl]methyl}pyrrolidin-3-yl]oxy}-2,3-dihydro-1H-isoindol-2-yl)piperidine-2,6-dione]	34	3.97	6.02	11.865		
O=C1CCC(N2Cc3cc(O[C@H]4CCN(Cc5ccc6nc(C(F)(F)F)ncc6c5)C4)ccc3C2=O)C(=O)N1 (stereo partly drawn) [3-(1-oxo-5-{[(3S)-1-{[2-(trifluoromethyl)quinazolin-6-yl]methyl}pyrrolidin-3-yl]oxy}-2,3-dihydro-1H-isoindol-2-yl)piperidine-2,6-dione]	29.67	8.11	33.2	14.74		
O=C1CCC(N2Cc3cc(O[C@H]4CCN(Cc5cc6ccccc6nc5C(F)(F)F)C4)ccc3C2=O)C(=O)N1 (stereo partly drawn) [3-(1-oxo-5-{[(3S)-1-{[2-(trifluoromethyl)quinolin-3-yl]methyl}pyrrolidin-3-yl]oxy}-2,3-dihydro-1H-isoindol-2-yl)piperidine-2,6-dione]	39.87	29.3	257	73.03		
O=C1CCC(N2Cc3cc(O[C@H]4CCN(Cc5ccc6nc(C(F)(F)F)ccc6c5)C4)ccc3C2=O)C(=O)N1 (stereo partly drawn) [3-(1-oxo-5-{[(3S)-1-{[2-(trifluoromethyl)quinolin-6-yl]methyl}pyrrolidin-3-yl]oxy}-2,3-dihydro-1H-isoindol-2-yl)piperidine-2,6-dione]	24.72	5.42	7.29	8.76		
O=C1CCC(N2Cc3cc(O[C@H]4CCN(Cc5ccc6ncc(C(F)(F)F)cc6c5)C4)ccc3C2=O)C(=O)N1 (stereo partly drawn) [3-(1-oxo-5-{[(3S)-1-{[3-(trifluoromethyl)quinolin-6-yl]methyl}pyrrolidin-3-yl]oxy}-2,3-dihydro-1H-isoindol-2-yl)piperidine-2,6-dione]	32	2.85	15.9	11.23		
O=C1CCC(N2Cc3cc(O[C@H]4CCN(Cc5ccc(C(F)(F)F)cn5)C4)ccc3C2=O)C(=O)N1 (stereo partly drawn) [3-(1-oxo-5-{[(3S)-1-{[5-(trifluoromethyl)pyridin-2-yl]methyl}pyrrolidin-3-yl]oxy}-2,3-dihydro-1H-isoindol-2-yl)piperidine-2,6-dione]	53.66	52.6	363	65.6		
O=C1CCC(N2Cc3cc(O[C@H]4CCN(Cc5cncc(C(F)(F)F)c5)C4)ccc3C2=O)C(=O)N1 (stereo partly drawn) [3-(1-oxo-5-{[(3S)-1-{[5-(trifluoromethyl)pyridin-3-yl]methyl}pyrrolidin-3-yl]oxy}-2,3-dihydro-1H-isoindol-2-yl)piperidine-2,6-dione]	33.76	36.9	842	54.82		
O=C1CCC(N2Cc3cc(O[C@H]4CCN(Cc5cc6ccc(C(F)(F)F)cc6cn5)C4)ccc3C2=O)C(=O)N1 (stereo partly drawn) [3-(1-oxo-5-{[(3S)-1-{[7-(trifluoromethyl)isoquinolin-3-yl]methyl}pyrrolidin-3-yl]oxy}-2,3-dihydro-1H-isoindol-2-yl)piperidine-2,6-dione]	31	1.47	1.14	6.875		
[2H]c1nc2ccccc2cc1CN1CCC(Oc2ccc3c(c2)CN(C2CCC(=O)NC2=O)C3=O)C1 [3-(1-oxo-5-{[(3S)-1-{[(2-^2H)quinolin-3-yl]methyl}pyrrolidin-3-yl]oxy}-2,3-dihydro-1H-isoindol-2-yl)piperidine-2,6-dione]	25.75	8.41	28.5	9.675		
[2H]c1ccc2cc(CN3CCC(Oc4ccc5c(c4)CN(C4CCC(=O)NC4=O)C5=O)C3)ccc2n1 [3-(1-oxo-5-{[(3S)-1-{[(2-^2H)quinolin-6-yl]methyl}pyrrolidin-3-yl]oxy}-2,3-dihydro-1H-isoindol-2-yl)piperidine-2,6-dione]	29.5	4.09	26.9	9.14		
O=C1CCC(N2Cc3cc(O[C@@H]4CN(Cc5ccc6nc([C@H]7CCOC7)ccc6c5)C[C@H]4C(F)(F)F)ccc3C2=O)C(=O)N1 (stereo partly drawn) [3-(1-oxo-5-{[(3S,4R)-1-({2-[(3R)-oxolan-3-yl]quinolin-6-yl}methyl)-4-(trifluoromethyl)pyrrolidin-3-yl]oxy}-2,3-dihydro-1H-isoindol-2-yl)piperidine-2,6-dione]		3.64		24.26	27.14	22.6
O=C1CCC(N2Cc3ccc(O[C@H]4CCN(Cc5cnc6ccccc6c5)C4)cc3C2=O)C(=O)N1 (stereo partly drawn) [3-(1-oxo-6-{[(3S)-1-[(quinolin-3-yl)methyl]pyrrolidin-3-yl]oxy}-2,3-dihydro-1H-isoindol-2-yl)piperidine-2,6-dione]	27.98	8.74	42.4	12.43		
O=C1CCC(N2Cc3ccc(O[C@H]4CCN(Cc5ccc6ncccc6c5)C4)cc3C2=O)C(=O)N1 (stereo partly drawn) [3-(1-oxo-6-{[(3S)-1-[(quinolin-6-yl)methyl]pyrrolidin-3-yl]oxy}-2,3-dihydro-1H-isoindol-2-yl)piperidine-2,6-dione]	88.79		14.6	82.37		
Cc1ccc2cc(CN3CC[C@H](Oc4ccc5c(c4)CN(C4CCC(=O)NC4=O)C5=O)[C@H]3C)ccc2n1 (stereo partly drawn) [3-(5-{[(2R,3S)-2-methyl-1-[(2-methylquinolin-6-yl)methyl]pyrrolidin-3-yl]oxy}-1-oxo-2,3-dihydro-1H-isoindol-2-yl)piperidine-2,6-dione]	34	16.7	339	28.935		
